# In patent publication US10125126B2, “N-cycloalkyl-N-[(heterocyclylphenyl)methylene]-(thio)carboxamide derivatives” (BAYER CROPSCIENCE AG, priority 2012, dated 2018):
# Like-named read-outs stand apart in the source and are kept apart here.
# Assays:
# Sphaerotheca fuliginea = test: In vivo preventive test on Sphaerotheca fuliginea (powdery mildew on cucurbits); conditions: gherkin plants, 12 days after contamination
# Description: In Vivo Preventive Test on Sphaerotheca fuliginea (Powdery Mildew on Cucurbits) […] Gherkin plants (“Vert petit de Paris” variety), sown in starter cups on a 50/50 peat soil-pozzolana substrate and grown at 24° C., are treated at the Z11 cotyledon stage by spraying with the active ingredient prepared as described above. Plants, used as controls, are treated with the mixture of acetone/tween/DMSO/water not containing the active material. After 24 hours, the plants are contaminated by spraying the cotyledons with an aqueous suspension of Sphaerotheca fuliginea spores (100 000 spores per mL). The spores are collected from infected plants. […] Grading (% of efficacy) is carried out 12 days after the contamination, in comparison with the control plants.
# [1] = log P by HPLC on a reversed-phase column (C 18), EEC Directive 79/831 Annex V.A8; type: physicochemical
# Description: In table 1, the log P values were determined in accordance with EEC Directive 79/831 Annex V.A8 by HPLC (High Performance Liquid Chromatography) on a reversed-phase column (C 18), using the method described below: Temperature: 40° C.; Mobile phases: 0.1% aqueous formic acid and acetonitrile; linear gradient from 10% acetonitrile to 90% acetonitrile. Calibration was carried out using unbranched alkan-2-ones (comprising 3 to 16 carbon atoms) with known log P values (determination of the log P values by the retention times using linear interpolation between two successive alkanones). lambda-max-values were determined using UV-spectra from 200 nm to 400 nm and the peak values of the chromatographic signals.
# Puccinia recondita = test: In vivo preventive test on Puccinia recondita (brown rust on wheat); conditions: wheat plants, 12 days after contamination
# Description: In Vivo Preventive Test on Puccinia recondita (Brown Rust on Wheat) […] Wheat plants (“Scipion” variety), sown in starter cups on a 50/50 peat soil pozzolana substrate and grown at 22° C., are treated at the 1 leaf stage (10 cm height) by spraying with the active ingredient prepared as described above. Plants, used as controls, are treated with the mixture of acetone/tween/DMSO/water not containing the active material. After 24 hours, the plants are contaminated by spraying the leaves with an aqueous suspension of Puccinia recondita spores (100 000 spores per mL). The spores are collected from an infected plant and are suspended in water containing 2.5 mL/L of Tween 80 at 10%. […] Grading (% of efficacy) is carried out 12 days after the contamination, in comparison with the control plants.
# Uromyces appendiculatus = test: In vivo preventive test on Uromyces appendiculatus (bean rust); conditions: bean plants, 11 days after contamination
# Description: In Vivo Preventive Test on Uromyces appendiculatus (Bean Rust) […] Bean plants (“Saxa” variety), sown in starter cups on a 50/50 peat soil pozzolana substrate and grown at 24° C., are treated at the 2 leaf stage (9 cm height) by spraying with the active ingredient prepared as described above. Plants, used as controls, are treated with the mixture of acetone/tween/DMSO/water not containing the active material. After 24 hours, the plants are contaminated by spraying the leaves with an aqueous suspension of Uromyces appendiculatus spores (150 000 spores per mL). The spores are collected from infected plants and are suspended in water containing 2.5 mL/L of Tween 80 at 10%. […] Grading (% of efficacy) is carried out 11 days after the contamination, in comparison with the control plants.
# Septoria tritici = test: In vivo preventive test on Septoria tritici (wheat); conditions: wheat plants, 24 days after contamination
# Description: In Vivo Preventive Test on Septoria tritici (Wheat) […] Wheat plants (“Scipion” variety), sown in starter cups on a 50/50 peat soil pozzolana substrate and grown at 22° C., are treated at the 1 leaf stage (10 cm height) by spraying with the active ingredient prepared as described above. Plants, used as controls, are treated with the mixture of acetone/tween/DMSO/water not containing the active material. After 24 hours, the plants are contaminated by spraying the leaves with an aqueous suspension of cryopreserved Septoria tritici spores (500 000 spores per mL). The contaminated wheat plants are incubated for 72 hours at 18° C. and at 100% relative humidity, and then for 21 days at 90% relative humidity. Grading (% of efficacy) is carried out 24 days after the contamination, in comparison with the control plants.
# [2] = Podosphaera fuliginea, 288 h, 500 ppm of active ingredient, read-out: Efficacy
# [3] = HPLC on reversed-phase column (C 18), 40° C., 0.1% aqueous formic acid and acetonitrile, linear gradient 10% to 90% acetonitrile
# [4] = reversed-phase HPLC column (C 18), HPLC, C 18, 40° C., 0.1% aqueous formic acid and acetonitrile, read-out: logP
molecule,measurement,setting,value
"Cn1cc(C(=O)N(Cc2ccc(-c3cccnc3)cc2Cl)C2CC2)c(C(F)F)n1 [CMP1, N-[2-chloro-4-(pyridin-3-yl)benzyl]-N-cyclopropyl-3-(difluoromethyl)-1-methyl-1H-pyrazole-4-carboxamide, reference compound]",pest or weed control at 100 ppm,"Sphaerotheca fuliginea; Podosphaera fuliginea, 288 h, 100 ppm of active ingredient, read-out: Efficacy",0%
"Cn1nc(C(F)F)c(C(=O)N(Cc2ccccc2-c2cccc(Cl)n2)C2CC2)c1F [CMP3, N-[2-(6-chloropyridin-2-yl)benzyl]-N-cyclopropyl-3-(difluoromethyl)-5-fluoro-1-methyl-1H-pyrazole-4-carboxamide, reference compound]",pest or weed control at 500 ppm,Sphaerotheca fuliginea; [2],< 40%
"Cn1cc(C(=O)N(Cc2ccccc2-c2cccc(Cl)n2)C2CC2)c(C(F)F)n1 [CMP4, N-[2-(6-chloropyridin-2-yl)benzyl]-N-cyclopropyl-3-(difluoromethyl)-1-methyl-1H-pyrazole-4-carboxamide, reference compound]",pest or weed control at 500 ppm,Sphaerotheca fuliginea; [2],< 40%
"Cn1nc(C(F)F)c(C(=O)N(Cc2ccccc2-c2cccc(Cl)n2)C2CC2)c1Cl [CMP5, 5-chloro-N-[2-(6-chloropyridin-2-yl)benzyl]-N-cyclopropyl-3-(difluoromethyl)-1-methyl-1H-pyrazole-4-carboxamide, reference compound]",pest or weed control at 500 ppm,Sphaerotheca fuliginea; [2],< 40%
Cn1nc(C(F)F)c(C(=O)N(Cc2ccccc2C2COC2)C2CC2)c1F [I.1],logP,[1]; [3],1.51
same,Efficacy,Puccinia recondita; 500 ppm of active ingredient,75%
same,Efficacy,Sphaerotheca fuliginea; 500 ppm of active ingredient,93%
same,Efficacy,Uromyces appendiculatus; 500 ppm of active ingredient,83%
Cn1cc(C(=O)N(Cc2cc(F)ccc2C2(C)CO2)C2CC2)c(C(F)F)n1 (stereo not drawn) [I.6],logP,[1]; [3],2.53
same,Efficacy,Puccinia recondita; 100 ppm of active ingredient,81%
same,Efficacy,Septoria tritici; 100 ppm of active ingredient,92%
same,Efficacy,Uromyces appendiculatus; 100 ppm of active ingredient,73%
Cn1nc(C(F)F)c(C(=O)N(Cc2cc(F)ccc2C2(C)CO2)C2CC2)c1Cl (stereo not drawn) [I.8],logP,[1]; [3],3.00
same,Efficacy,Puccinia recondita; 100 ppm of active ingredient,94%
same,Efficacy,Uromyces appendiculatus; 100 ppm of active ingredient,95%
CC1OCC1c1ccccc1CN(C(=O)c1c(C(F)F)nn(C)c1Cl)C1CC1 (stereo not drawn) [I.16],logP,[1]; [3],2.08
same,Efficacy,Septoria tritici; 500 ppm of active ingredient,90%
Cc1ccc(-c2ccoc2)c(CN(C(=O)c2c(C(F)F)nn(C)c2Cl)C2CC2)c1 [I.37],logP,[1]; [3],3.71
same,Efficacy,Puccinia recondita; 100 ppm of active ingredient,81%
same,Efficacy,Uromyces appendiculatus; 100 ppm of active ingredient,83%
Cc1ccc(-c2ccoc2)c(CN(C(=O)c2c(C(F)F)nn(C)c2F)C2CC2)c1 [I.39],logP,[1]; [3],3.55
same,Efficacy,Puccinia recondita; 100 ppm of active ingredient,88%
same,Efficacy,Septoria tritici; 100 ppm of active ingredient,80%
Cn1ccc(-c2ccc(Cl)cc2CN(C(=O)c2c(C(F)F)nn(C)c2F)C2CC2)c1 [I.48],logP,[1]; [3],3.71
same,Efficacy,Puccinia recondita; 500 ppm of active ingredient,75%
same,Efficacy,Septoria tritici; 500 ppm of active ingredient,86%
same,Efficacy,Uromyces appendiculatus; 500 ppm of active ingredient,96%
Cc1ccc(-c2cnn(C)c2)c(CN(C(=O)c2c(C(F)F)nn(C)c2F)C2CC2)c1 [I.58],logP,[1]; [3],2.63
same,Efficacy,Septoria tritici; 100 ppm of active ingredient,97%
Cn1cc(C(=O)N(Cc2cc(Cl)ccc2-c2cccs2)C2CC2)c(C(F)F)n1 [I.71],logP,[1]; [3],3.69
same,Efficacy,Septoria tritici; 500 ppm of active ingredient,90%
same,Efficacy,Sphaerotheca fuliginea; 500 ppm of active ingredient,98%
same,Efficacy,Uromyces appendiculatus; 500 ppm of active ingredient,81%
Cn1nc(C(F)F)c(C(=O)N(Cc2ccccc2-c2ccsc2)C2CC2)c1Cl [I.76],logP,[1]; [3],3.71
same,Efficacy,Puccinia recondita; 500 ppm of active ingredient,93%
same,Efficacy,Septoria tritici; 500 ppm of active ingredient,75%
same,Efficacy,Uromyces appendiculatus; 500 ppm of active ingredient,96%
Cn1nc(C(F)F)c(C(=O)N(Cc2cc(Cl)ccc2-c2cccs2)C2CC2)c1Cl [I.77],logP,[1]; [3],4.29
same,Efficacy,Uromyces appendiculatus; 500 ppm of active ingredient,84%
Cn1nc(C(F)F)c(C(=S)N(Cc2cc(Cl)ccc2-c2cccs2)C2CC2)c1Cl [I.79],logP,[1]; [3],4.92
same,Efficacy,Septoria tritici; 500 ppm of active ingredient,75%
same,Efficacy,Uromyces appendiculatus; 500 ppm of active ingredient,100%
CC1CC1N(Cc1ccccc1-c1ccsc1)C(=O)c1cn(C)nc1C(F)F (stereo not drawn) [I.87],logP,[1]; [3],3.48
same,Efficacy,Puccinia recondita; 500 ppm of active ingredient,75%
same,Efficacy,Uromyces appendiculatus; 500 ppm of active ingredient,84%
CC1CC1N(Cc1ccccc1-c1ccsc1)C(=O)c1c(C(F)F)nn(C)c1Cl (stereo not drawn) [I.88],logP,[1]; [3],3.92
same,Efficacy,Puccinia recondita; 500 ppm of active ingredient,94%
same,Efficacy,Septoria tritici; 500 ppm of active ingredient,79%
CC1=NOC(C)(c2ccc(C)cc2CN(C(=O)c2c(C(F)F)nn(C)c2F)C2CC2)C1 (stereo not drawn) [I.111],logP,[1]; [3],2.98
same,Efficacy,Puccinia recondita; 100 ppm of active ingredient,88%
same,Efficacy,Sphaerotheca fuliginea; 100 ppm of active ingredient,100%
same,Efficacy,Uromyces appendiculatus; 100 ppm of active ingredient,100%
Cc1nn(C)c(C)c1-c1ccc(F)cc1CN(C(=O)c1c(C(F)F)nn(C)c1F)C1CC1 [I.112],logP,[1]; [3],2.66
same,Efficacy,Puccinia recondita; 500 ppm of active ingredient,83%
same,Efficacy,Septoria tritici; 500 ppm of active ingredient,100%
same,Efficacy,Sphaerotheca fuliginea; 500 ppm of active ingredient,100%
Cc1nn(C)c(C)c1-c1ccc(Cl)cc1CN(C(=O)c1c(C(F)F)nn(C)c1F)C1CC1 [I.113],logP,[1]; [3],2.98
same,Efficacy,Septoria tritici; 500 ppm of active ingredient,70%
same,Efficacy,Sphaerotheca fuliginea; 500 ppm of active ingredient,98%
Cn1nc(C(F)F)c(C(=O)N(Cc2cc(Cl)ccc2-c2csc3ccccc23)C2CC2)c1F [I.155],logP,[1]; [3],4.74
same,Efficacy,Puccinia recondita; 500 ppm of active ingredient,75%
same,Efficacy,Septoria tritici; 500 ppm of active ingredient,86%
same,Efficacy,Uromyces appendiculatus; 500 ppm of active ingredient,99%
Cc1ccc(-c2csc3ccccc23)c(CN(C(=O)c2c(C(F)F)nn(C)c2F)C2CC2)c1 [I.160],logP,[1]; [3],4.64
same,Efficacy,Septoria tritici; 100 ppm of active ingredient,71%
same,Efficacy,Sphaerotheca fuliginea; 100 ppm of active ingredient,98%
same,Efficacy,Uromyces appendiculatus; 100 ppm of active ingredient,77%
"Clc1ccc(-c2ccccc2CNC2CC2)s1 [IIa.6, N-[2-(5-chloro-2-thienyl)benzyl]cyclopropanamine]",chromatographic logP,[1]; [4],1.28
"Clc1ccc(-c2ccc(Cl)s2)c(CNC2CC2)c1 [IIa.7, N-[5-chloro-2-(5-chloro-2-thienyl)benzyl]cyclopropanamine]",chromatographic logP,[1]; [4],1.51
"Clc1ccc(-c2ccco2)cc1CNC1CC1 [IIb.1, N-[2-chloro-5-(2-furyl)benzyl]cyclopropanamine]",chromatographic logP,[1]; [4],1.08
"Clc1ccc(-c2cccs2)cc1CNC1CC1 [IIb.2, N-[2-chloro-5-(2-thienyl)benzyl]cyclopropanamine]",chromatographic logP,[1]; [4],1.29
"Clc1ccc(-c2ccsc2)cc1CNC1CC1 [IIb.3, N-[2-chloro-5-(3-thienyl)benzyl]cyclopropanamine]",chromatographic logP,[1]; [4],1.28
"Clc1ccc(-c2ccc(Cl)c(CNC3CC3)c2)s1 [IIb.4, N-[2-chloro-5-(5-chloro-2-thienyl)benzyl]cyclopropanamine]",chromatographic logP,[1]; [4],1.58
CC(C)c1ccc(Cl)cc1CN(C(=O)c1c(C(F)F)nn(C)c1F)C1CC1 [N-(5-chloro-2-isopropylbenzyl)-N-cyclopropyl-3-(difluoromethyl)-5-fluoro-1-methyl-1H-pyrazole-4-carboxamide],chromatographic logP,[1]; [4],4.06
C=C(C)c1ccc(Cl)cc1CN(C(=O)c1c(C(F)F)nn(C)c1F)C1CC1 [N-[5-chloro-2-(prop-1-en-2-yl)benzyl]-N-cyclopropyl-3-(difluoromethyl)-5-fluoro-1-methyl-1H-pyrazole-4-carboxamide],chromatographic logP,[1]; logP,3.96
"CC(C)c1ccc(Cl)cc1CNC(=O)c1c(C(F)F)nn(C)c1F [Xa.1, N-(5-chloro-2-isopropylbenzyl)-3-(difluoromethyl)-5-fluoro-1-methyl-1H-pyrazole-4-carboxamide]",chromatographic logP,[1]; logP,3.46
N-cyclopropyl-3-(difluoromethyl)-5-fluoro-1-methyl-N-[2-(3-methyloxetan-3-yl)benzyl]-1H-pyrazole-4-carboxamide [I.15],logP,[1]; [3],1.94
same,logP,"[1]; HPLC, C 18, 40° C., 0.1% aqueous formic acid and acetonitrile",1.94
